In patent US20230278972A1, “SUBSTITUTED HALOALKYL SULFONANILIDE HERBICIDES” (FMC Corporation, priority 2020, published 2023):

Columns and labels:
Format in all cases: in vivo
[1] = test system: blackgrass (Alopecurus myosuroides); test: Test A1 preemergence, blackgrass
Outline: (§1)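 Test compounds were formulated in a non-phytotoxic solvent mixture containing a surfactant. For preemergence, seeds sown in a loam soil–sand blend received a directed soil spray. For postemergence, potted plants in the same soil, 2 to 10 cm tall at the one- to two-leaf stage, were sprayed.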

[2] = test system: goosegrass (Eleusine indica); test: Test A1 preemergence, goosegrass
Outline: as §1

[3] = test system: Ryegrass, Italian (Italian ryegrass, Lolium multiflorum); test: Test A1 postemergence, Ryegrass, Italian; conditions: Postemergence
Outline: (§2)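 Plants were grown in a loam soil/sand blend, with test chemicals formulated in a non-phytotoxic solvent mixture containing surfactant. Preemergence treatment (corn) was a directed soil spray at planting. Postemergence treatment was applied to plants 2 to 10 cm tall at the one- to two-leaf stage.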

kochia (Bassia scoparia) [4] = test: Test A1 postemergence, kochia; conditions: Postemergence
Outline: as §2

[5] = test system: Oat, Wild (wild oat, Avena fatua); test: Test A1 preemergence, Oat, Wild
Outline: as §1

soybean (Glycine max) = test: Test A1 postemergence, soybean; conditions: Postemergence
Outline: as §2

kochia (Bassia scoparia) [6] = test: Test A1 preemergence, kochia
Outline: as §1

[7] = test system: Pigweed, Palmer (palmer amaranth, palmer pigweed, Amaranthus palmeri); test: Test A1 preemergence, Pigweed, Palmer
Outline: as §1

[8] = 31 g ai/ha, 0 to 100 scale (0 no effect, 100 complete control)
[9] = 125 g ai/ha, 0 to 100 scale, 0 no effect, 100 complete control
[10] = 31 g ai/ha, 0 to 100 scale (0 no effect, 100 complete control), 10 days

Compound | Plant response rating, Blackgrass [1, 8] | Plant response rating, Blackgrass [1, 9] | Plant response rating, Goosegrass [2, 8] | Plant response rating, Goosegrass [2, 9] | Plant response rating, Ryegrass, Italian [3, 10] | Plant response rating, Ryegrass, Italian ([3]; 125 g ai/ha, 0 to 100 scale) | Plant response rating, Kochia (kochia (Bassia scoparia) [4]; [10]) | Plant response rating, Kochia (kochia (Bassia scoparia) [4]; 125 g ai/ha, 0 to 100 scale) | Plant response rating, Oat, Wild [5, 8] | Plant response rating, Oat, Wild [5, 9] | Plant response rating, Soybean (soybean (Glycine max); [10]) | Plant response rating, Soybean (soybean (Glycine max); 125 g ai/ha, 0 to 100 scale) | Plant response rating, Kochia (kochia (Bassia scoparia) [6]; [8]) | Plant response rating, Kochia (kochia (Bassia scoparia) [6]; [9]) | Plant response rating, Pigweed, Palmer [7, 8] | Plant response rating, Pigweed, Palmer [7, 9]
Cc1c(C(=O)N2CCCCC2)cc(N(COC(=O)C(C)(C)C)S(=O)(=O)C(F)(F)F)c(C)c1C [Compound 329, [[(Trifluoromethyl)sulfonyl][2,3,4-trimethyl-5-(1-piperidinylcarbonyl)phenyl]amino]methyl 2,2-dimethylpropanoate] | 0 | 0 | 20 | 100 | 0 | 0 | 10 | 20 | 0 | 0 | 60 | 60 | 0 | 30 | 10 | 50
Cc1c(C(=O)N2C[C@@H](C)O[C@@H](C)C2)cc(N(COC(=O)C(C)(C)C)S(=O)(=O)C(F)(F)F)c(C)c1C [Compound 331] | 0 | 0 | 0 | 90 | 10 | 50 | 0 | 10 | 0 | 0 | 60 | 70 | 0 | 20 | 0 | 30
CCOC(=O)N(c1cc(C(=O)N2C[C@@H](C)O[C@@H](C)C2)c(C)c(C)c1C)S(=O)(=O)C(F)(F)F [Compound 332] | 0 | 0 | 50 | 90 | 0 | 50 | 0 | 10 | 0 | 20 | 60 | 100 | 20 | 60 | 60 | 90
Cc1c(C(=O)N2CCCCC2)cc(NS(=O)(=O)C(F)(F)F)c(Cl)c1F [Compound 333] | 0 | 0 | 80 | 80 | 0 | 0 | 30 | 70 | 20 | 40 | 30 | 80 | 20 | 80 | 90 | 100
Cc1c(NS(=O)(=O)C(F)(F)F)cc(C2=NOC3CCCC23)c(C)c1C (centres unmarked) [Compound 335] | 0 | 0 | 30 | 70 | 0 | 30 | 10 | 60 | 0 | 30 | 0 | 30 | 20 | 60 | 100 | 100
Cc1c(C2=NO[C@@H]3CCC[C@H]23)cc(N(COC(=O)C(C)(C)C)S(=O)(=O)C(F)(F)F)c(C)c1C [Compound 336, [[(Trifluoromethyl)sulfonyl][2,3,4-trimethyl-5-[(3aR,6aR)-3a,5,6,6a-tetrahydro-4H-cyclopent[d]isoxazol-3-yl]phenyl]amino]methyl 2,2-dimethylpropanoate] | 0 | 0 | 30 | 70 | 0 | 0 | 70 | 80 | 0 | 20 | 20 | 50 | 0 | 0 | 60 | 100
C#CCN(C)C(=O)c1cc(NS(=O)(=O)C(F)(F)F)c(Cl)c(F)c1C [Compound 337] | 40 | 60 | 50 | 100 | 0 | 20 | 40 | 70 | 0 | 20 | 50 | 70 | 20 | 50 | 40 | 100
COCC1CC(c2cc(N(COC(=O)C(C)(C)C)S(=O)(=O)C(F)(F)F)c(C)cc2C)=NO1 (centres unmarked) [Compound 338] | 0 | 0 | 40 | 100 | 0 | 10 | 10 | 60 | 0 | 0 | 10 | 40 | 0 | 10 | 0 | 40
CCOC1CC(c2cc(N(COC(=O)C(C)(C)C)S(=O)(=O)C(F)(F)F)c(C)cc2C)=NO1 (centres unmarked) [Compound 339] | 0 | 0 | 0 | 90 | 0 | 50 | 30 | 70 | 0 | 0 | 0 | 10 | 0 | 90 | 30 | 100
CCC1ON=C(c2cc(NS(=O)(=O)C(F)(F)F)c(C)cc2C)C1CC (centres unmarked) [Compound 343] | 60 | 90 | 90 | 100 | 20 | 80 | 20 | 60 | 0 | 70 | 40 | 60 | 30 | 70 | 40 | 90
CCC1ON=C(c2cc(N(COC(=O)C(C)(C)C)S(=O)(=O)C(F)(F)F)c(C)cc2C)C1CC (centres unmarked) [Compound 344] | 0 | 30 | 20 | 90 | 30 | 40 | 20 | 60 | 0 | 10 | 40 | 50 | 0 | 30 | 50 | 80
CCC1ON=C(c2cc(N(C(=O)OCC(C)C)S(=O)(=O)C(F)(F)F)c(C)cc2C)C1CC (centres unmarked) [Compound 345] | 40 | 70 | 30 | 90 | 20 | 60 | 30 | 80 | 20 | 10 | 40 | 50 | 20 | 30 | 80 | 100
CCC1ON=C(c2cc(NS(=O)(=O)C(F)(F)F)c(C)cc2C)C1CC (centres unmarked) [Compound 346] | 80 | 90 | 90 | 100 | 0 | 80 | 30 | 60 | 30 | 80 | 30 | 60 | 30 | 30 | 100 | 100
CCC1ON=C(c2cc(N(COC(=O)C(C)(C)C)S(=O)(=O)C(F)(F)F)c(C)cc2C)C1CC (centres unmarked) [Compound 347] | 10 | 30 | 10 | 60 | 0 | 60 | 10 | 60 | 0 | 0 | 40 | 50 | 0 | 50 | 20 | 50
